Laboratory results: paper PMC5458644 (Neoplasia (New York, N.Y.), 2017)
Blank lines part the entries; values can stand above or below the compound they belong to.

How the values were obtained:
[1] = Secondary pharmacology panel; details: 10 μM initial screen; apart from adenosine receptors; data not shown
B16-CD73+ tumor cells = assay: Experimental lung metastasis model, B16-CD73+ cells i.v.; assay type: in vivo, C57Bl/6 mice; details: 15 mg/kg/day oral gavage, daily for 15 days, vs vehicle, P < .05
MCA205 tumor cells = assay: Experimental lung metastasis model, MCA205 cells i.v.; assay type: in vivo, C57Bl/6 mice; details: 30 mg/kg/day oral gavage, daily for 7 days, vs vehicle, P < .05
[2] = test system: human tumor-infiltrating lymphocytes (TILs); assay: Ex vivo assay of disaggregated resected NSCLC tumors, γ-interferon ELISA; assay type: cell-based; details: tumors of Figure 5 A and B; 3 days culture
A2aR = details: alone or in combination with anti-PD-1 and anti-CTLA4; cited from earlier work

effect in secondary pharmacology profile [1]: did not show any relevant effect
Compound: Nc1nc(-n2cccn2)nc(-n2cccn2)c1Br [PBF-509]
tumor burden (lung nodules, lung weight) (B16-CD73+ tumor cells): significantly reduced tumor burden | tumor burden (lung nodules, lung weight) (MCA205 tumor cells): significantly reduced tumor burden | TIL function (γ-interferon), combination of PBF-509 with anti-PD-L1 [2]: improved TIL function in an additive fashion

Compound: Nc1nc2c(cnn2CCc2ccccc2)c2nc(-c3ccco3)nn12 [SCH58261]
tumor burden in vivo (A2aR): decreased tumor burden

Compound: Nc1nc(NCCc2ccc(O)cc2)nc2nc(-c3ccco3)nn12 [ZM241385]
tumor burden in vivo (A2aR): decreased tumor burden
